In PubChem BioAssay AID1259407 (Chemical Carcinogenesis Research Information System (CCRIS), 2018):
Calls of active or inactive are those of the source. How the calls were made is not given here.

Test system: CCRIS mutagenicity, Ames/micronucleus/aberration tests
Test: CCRIS mutagenicity studies
[1] = Test System: AMES SALMONELLA TYPHIMURIUM, Strain/Indicator: TA100, Metabolic Activation: NONE, Method: PREINCUBATION
[2] = Test System: AMES SALMONELLA TYPHIMURIUM, Strain/Indicator: TA1535, Metabolic Activation: NONE, Method: PREINCUBATION

SMILES: CCCCC(CC)COC(=O)c1ccc(N(C)N=O)cc1 (stereo not drawn)
- mutagenic call (Test System: AMES SALMONELLA TYPHIMURIUM, Strain/Indicator: TA98, Metabolic Activation: HAMSTER, LIVER, S-9, AROCLOR 1254, Method: PREINCUBATION): inactive; negative
- mutagenic call (Test System: AMES SALMONELLA TYPHIMURIUM, Strain/Indicator: TA98, Metabolic Activation: HAMSTER, LIVER, S-9, AROCLOR 1254, Method: STANDARD PLATE): inactive; negative
- mutagenic call (Test System: AMES SALMONELLA TYPHIMURIUM, Strain/Indicator: TA98, Metabolic Activation: NONE, Method: PREINCUBATION): inactive; negative
- mutagenic call (Test System: AMES SALMONELLA TYPHIMURIUM, Strain/Indicator: TA98, Metabolic Activation: NONE, Method: STANDARD PLATE): inactive; negative
- mutagenic call (Test System: AMES SALMONELLA TYPHIMURIUM, Strain/Indicator: TA98, Metabolic Activation: RAT, LIVER, S-9, AROCLOR 1254, Method: PREINCUBATION): inactive; negative
- mutagenic call (Test System: AMES SALMONELLA TYPHIMURIUM, Strain/Indicator: TA98, Metabolic Activation: RAT, LIVER, S-9, AROCLOR 1254, Method: STANDARD PLATE): inactive; negative
- mutagenic call (Test System: AMES SALMONELLA TYPHIMURIUM, Strain/Indicator: TA100, Metabolic Activation: HAMSTER, LIVER, S-9, AROCLOR 1254 (1.5 OR 3.6 MG), Method: PREINCUBATION): inactive; negative
- mutagenic call (Test System: AMES SALMONELLA TYPHIMURIUM, Strain/Indicator: TA100, Metabolic Activation: HAMSTER, LIVER, S-9, AROCLOR 1254, Method: PREINCUBATION): inactive; negative
- mutagenic call (Test System: AMES SALMONELLA TYPHIMURIUM, Strain/Indicator: TA100, Metabolic Activation: HAMSTER, LIVER, S-9, AROCLOR 1254, Method: STANDARD PLATE): inactive; negative
- mutagenic call [1]: inactive; negative
- mutagenic call (Test System: AMES SALMONELLA TYPHIMURIUM, Strain/Indicator: TA100, Metabolic Activation: NONE, Method: STANDARD PLATE): inactive; negative
- mutagenic call (Test System: AMES SALMONELLA TYPHIMURIUM, Strain/Indicator: TA100, Metabolic Activation: RAT, LIVER, S-9, AROCLOR 1254 (1.5 OR 2.2 MG), Method: PREINCUBATION): inactive; negative
- mutagenic call (Test System: AMES SALMONELLA TYPHIMURIUM, Strain/Indicator: TA100, Metabolic Activation: RAT, LIVER, S-9, AROCLOR 1254, Method: PREINCUBATION): inactive; negative
- mutagenic call (Test System: AMES SALMONELLA TYPHIMURIUM, Strain/Indicator: TA100, Metabolic Activation: RAT, LIVER, S-9, AROCLOR 1254, Method: STANDARD PLATE): inactive; negative
- mutagenic call (Test System: AMES SALMONELLA TYPHIMURIUM, Strain/Indicator: TA1535, Metabolic Activation: HAMSTER, LIVER, S-9, AROCLOR 1254 (1.5 OR 3.6 MG), Method: PREINCUBATION): inactive; negative
- mutagenic call (Test System: AMES SALMONELLA TYPHIMURIUM, Strain/Indicator: TA1535, Metabolic Activation: HAMSTER, LIVER, S-9, AROCLOR 1254, Method: PREINCUBATION): inactive; negative
- mutagenic call (Test System: AMES SALMONELLA TYPHIMURIUM, Strain/Indicator: TA1535, Metabolic Activation: HAMSTER, LIVER, S-9, AROCLOR 1254, Method: STANDARD PLATE): inactive; negative
- mutagenic call [2]: inactive; negative
- mutagenic call (Test System: AMES SALMONELLA TYPHIMURIUM, Strain/Indicator: TA1535, Metabolic Activation: NONE, Method: STANDARD PLATE): inactive; negative
- mutagenic call (Test System: AMES SALMONELLA TYPHIMURIUM, Strain/Indicator: TA1535, Metabolic Activation: RAT, LIVER, S-9, AROCLOR 1254 (1.5 OR 2.2 MG), Method: PREINCUBATION): inactive; negative
- mutagenic call (Test System: AMES SALMONELLA TYPHIMURIUM, Strain/Indicator: TA1535, Metabolic Activation: RAT, LIVER, S-9, AROCLOR 1254, Method: PREINCUBATION): inactive; negative
- mutagenic call (Test System: AMES SALMONELLA TYPHIMURIUM, Strain/Indicator: TA1535, Metabolic Activation: RAT, LIVER, S-9, AROCLOR 1254, Method: STANDARD PLATE): inactive; negative
- mutagenic call (Test System: AMES SALMONELLA TYPHIMURIUM, Strain/Indicator: TA1537, Metabolic Activation: HAMSTER, LIVER, S-9, AROCLOR 1254, Method: PREINCUBATION): inactive; negative
- mutagenic call (Test System: AMES SALMONELLA TYPHIMURIUM, Strain/Indicator: TA1537, Metabolic Activation: HAMSTER, LIVER, S-9, AROCLOR 1254, Method: STANDARD PLATE): inactive; negative
- mutagenic call (Test System: AMES SALMONELLA TYPHIMURIUM, Strain/Indicator: TA1537, Metabolic Activation: NONE, Method: PREINCUBATION): inactive; negative
- mutagenic call (Test System: AMES SALMONELLA TYPHIMURIUM, Strain/Indicator: TA1537, Metabolic Activation: NONE, Method: STANDARD PLATE): inactive; negative
- mutagenic call (Test System: AMES SALMONELLA TYPHIMURIUM, Strain/Indicator: TA1537, Metabolic Activation: RAT, LIVER, S-9, AROCLOR 1254, Method: PREINCUBATION): inactive; negative
- mutagenic call (Test System: AMES SALMONELLA TYPHIMURIUM, Strain/Indicator: TA1537, Metabolic Activation: RAT, LIVER, S-9, AROCLOR 1254, Method: STANDARD PLATE): inactive; negative
- mutagenic call (Test System: AMES SALMONELLA TYPHIMURIUM, Strain/Indicator: TA1538, Metabolic Activation: HAMSTER, LIVER, S-9, AROCLOR 1254, Method: PREINCUBATION): inactive; negative
- mutagenic call (Test System: AMES SALMONELLA TYPHIMURIUM, Strain/Indicator: TA1538, Metabolic Activation: HAMSTER, LIVER, S-9, AROCLOR 1254, Method: STANDARD PLATE): inactive; negative
- mutagenic call (Test System: AMES SALMONELLA TYPHIMURIUM, Strain/Indicator: TA1538, Metabolic Activation: NONE, Method: PREINCUBATION): inactive; negative
- mutagenic call (Test System: AMES SALMONELLA TYPHIMURIUM, Strain/Indicator: TA1538, Metabolic Activation: NONE, Method: STANDARD PLATE): inactive; negative
- mutagenic call (Test System: AMES SALMONELLA TYPHIMURIUM, Strain/Indicator: TA1538, Metabolic Activation: RAT, LIVER, S-9, AROCLOR 1254, Method: PREINCUBATION): inactive; negative
- mutagenic call (Test System: AMES SALMONELLA TYPHIMURIUM, Strain/Indicator: TA1538, Metabolic Activation: RAT, LIVER, S-9, AROCLOR 1254, Method: STANDARD PLATE): inactive; negative
- mutagenic call (Test System: MOUSE LYMPHOMA, Strain/Indicator: L5178Y (TK+/TK-), Metabolic Activation: HAMSTER, LIVER, S-9, AROCLOR 1254, Method: SUSPENSION/PLATE): inactive; negative

SMILES: OCC(O)CCl (stereo not drawn)
- mutagenic call (Test System: AMES SALMONELLA TYPHIMURIUM, Strain/Indicator: TA97, Metabolic Activation: HAMSTER, LIVER, S-9, AROCLOR 1254 (10%), Method: PREINCUBATION): inactive; negative
- mutagenic call (Test System: AMES SALMONELLA TYPHIMURIUM, Strain/Indicator: TA97, Metabolic Activation: RAT, LIVER, S-9, AROCLOR 1254 (10%), Method: PREINCUBATION): inactive; negative
- mutagenic call (Test System: AMES SALMONELLA TYPHIMURIUM, Strain/Indicator: TA98, Metabolic Activation: HAMSTER, LIVER, S-9, AROCLOR 1254 (10%), Method: PREINCUBATION): inactive; negative
- mutagenic call (Test System: AMES SALMONELLA TYPHIMURIUM, Strain/Indicator: TA98, Metabolic Activation: RAT, LIVER, S-9, AROCLOR 1254 (10%), Method: PREINCUBATION): inactive; negative
- mutagenic call (Test System: AMES SALMONELLA TYPHIMURIUM, Strain/Indicator: TA98, Metabolic Activation: RAT, LIVER, S-9, KANECHLOR 500, Method: PREINCUBATION): inactive; negative
- mutagenic call (Test System: AMES SALMONELLA TYPHIMURIUM, Strain/Indicator: TA100, Metabolic Activation: HAMSTER, LIVER, S-9, AROCLOR 1254 (10%), Method: PREINCUBATION): active; positive
- mutagenic call [1]: active; positive
- mutagenic call (Test System: AMES SALMONELLA TYPHIMURIUM, Strain/Indicator: TA100, Metabolic Activation: RAT, LIVER, S-9, AROCLOR 1254 (10%), Method: PREINCUBATION): active; positive
- mutagenic call (Test System: AMES SALMONELLA TYPHIMURIUM, Strain/Indicator: TA100, Metabolic Activation: RAT, LIVER, S-9, KANECHLOR 500, Method: PREINCUBATION): inactive; negative
- mutagenic call (Test System: AMES SALMONELLA TYPHIMURIUM, Strain/Indicator: TA1535, Metabolic Activation: HAMSTER, LIVER, S-9, AROCLOR 1254 (10%), Method: PREINCUBATION): active; positive
- mutagenic call [2]: active; positive
- mutagenic call (Test System: AMES SALMONELLA TYPHIMURIUM, Strain/Indicator: TA1535, Metabolic Activation: RAT, LIVER, S-9, AROCLOR 1254 (10%), Method: PREINCUBATION): active; positive

SMILES: Cc1cc(O)c2c(c1O)C(=O)c1c(-c3ccc(O)c4c3C(=O)c3c(O)c(C)cc(O)c3C4=O)ccc(O)c1C2=O
- mutagenic call (Test System: UDS RODENT HEPATOCYTES, Strain/Indicator: THY INCORP, Metabolic Activation: NONE, Method: AUTORADIOGRAPHY): inactive; negative
